Values after ≈ are worked out from the molar mass of the structure shown. Values joined by “and” are separate entries in the source; they are usually repeats but may differ in a detail not shown here. Equal values may be shown once. Read-outs that look alike come from different tables or passages of the source.
How the values were obtained:
in vitro = conditions: human
Protocol: (§1) The biological results were determined as EC50 (anti-HIV potency), CC50 (cytotoxicity) and SI (selectivity index, the ratio of CC50/EC50). […]
(§2) compounds were made directly in flat-bottomed 96-well microtiter trays by adding 100 μL medium to the 25 μL stock solution and transferring 25 μL of this solution to another well that contained 100 μL medium using a Biomek 3000 robot (Beckman Instruments, Fullerton, CA). Untreated control HIV- and mock-infected cell samples were included for each sample. HIV-1 WT strain (IIIB), HIV-1 drug-resistant strains including […]
(§3) (50% cell culture infectious dose) or culture medium was added to either the infected or mock-infected wells of the microtiter tray. Mock-infected cells were used to evaluate the effect of test compounds on uninfected cells in order to assess its cytotoxicity.
(§4) Exponentially growing MT-4 cells were centrifuged for 5 min at 1000 rpm and the supernatant was discarded.
(§5) 50 μL volumes were transferred to the microtiter tray wells. Five days after infection, the viability of mock- and HIV-infected cells was examined spectrophotometrically by […]
(§6) concentration of the test compound that reduced the viability of the mock-infected MT- […]

[1] = test system: HIV-1 K103N/Y181C double mutant (RES056); experiment: microbe, parasite or virus in culture; type: cell-based; conditions: for EC50: Human immunodeficiency virus 1, MT4, read-out: EC50 RES056; for SI RES056: selectivity index, ratio of CC50/EC50
Protocol: as §1, §2, §3, §4, §5, §6

HIV-1 WT (IIIB) [2] = experiment: microbe, parasite or virus in culture; type: cell-based; conditions: for EC50: Human immunodeficiency virus 1, IIIB; for SI IIIB: selectivity index, ratio of CC50/EC50
Protocol: as §1, §2, §3, §4, §5, §6

HIV-1 Y188L = experiment: Anti-HIV-1 activity against Y188L mutant strain, MTT method in MT-4 cells; type: cell-based; conditions: Human immunodeficiency virus 1, MT4, read-out: EC50 Y188L
Excerpt: (§7) According to the anti-HIV-1(WT) results, the promising compounds 18a(1–5), 18b(1–5) and 18c1 were chosen to further evaluate their inhibitory potency against the prevalent HIV-1 mutations, including L100I, K103N, Y181C, Y188L, E138K, and F227L/V106A. […]. page 20:
(§8) or mock-infected wells of the microtiter tray. Mock-infected cells were used to evaluate
(§9) supernatant was discarded.
(§10) Five days after infection,
(§11) 4 cells by 50%. […]

HIV-1 L100I = experiment: microbe, parasite or virus in culture; type: cell-based; conditions: Human immunodeficiency virus 1, MT4, read-out: EC50 L100I
Protocol: as §2, §3, §4, §5, §6

HIV-1 E138K = experiment: microbe, parasite or virus in culture; type: cell-based; conditions: Human immunodeficiency virus 1, MT4, read-out: EC50 E138K
Protocol: as §2, §3, §4, §5, §6

HIV-1 F227L/V106A = experiment: Anti-HIV-1 activity against F227L/V106A mutant strain, MTT method in MT-4 cells; type: cell-based; conditions: for EC50: Human immunodeficiency virus 1, MT4, read-out: EC50 F227L/V106A
Excerpt: as §7, §8, §9, §10, §11

HIV-1 K103N = experiment: Anti-HIV-1 activity against K103N mutant strain, MTT method in MT-4 cells; type: cell-based; conditions: Human immunodeficiency virus 1, MT4, read-out: EC50 K103N
Excerpt: as §7, §8, §9, §10, §11

CYP2C19 = CYP2C19 (Homo sapiens, UniProt P33261); experiment: in vitro; conditions: human, microsomes
Sequence of CYP2C19 (P33261 whole entry): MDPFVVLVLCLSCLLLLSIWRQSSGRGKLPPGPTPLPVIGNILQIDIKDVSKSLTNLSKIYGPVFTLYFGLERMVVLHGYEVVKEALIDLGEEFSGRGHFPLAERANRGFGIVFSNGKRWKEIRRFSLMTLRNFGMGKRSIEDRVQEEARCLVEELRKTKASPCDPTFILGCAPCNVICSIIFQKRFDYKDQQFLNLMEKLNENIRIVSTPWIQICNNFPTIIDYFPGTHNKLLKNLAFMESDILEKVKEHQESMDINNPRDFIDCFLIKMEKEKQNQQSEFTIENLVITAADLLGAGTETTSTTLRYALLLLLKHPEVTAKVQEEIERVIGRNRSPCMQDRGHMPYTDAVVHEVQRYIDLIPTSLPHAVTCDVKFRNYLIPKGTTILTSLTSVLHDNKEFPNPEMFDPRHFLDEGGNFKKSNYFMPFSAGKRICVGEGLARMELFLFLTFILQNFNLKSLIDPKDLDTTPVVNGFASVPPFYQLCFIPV
Excerpt: (§12) Section 8. CYP enzyme inhibition assay […]
(§13) Agilent 1200 LC/MSD (Agilent, USA).

CYP2C9 = CYP2C9 (Homo sapiens, UniProt P11712); experiment: in vitro; conditions: human, microsomes
Sequence of CYP2C9 (P11712 whole entry): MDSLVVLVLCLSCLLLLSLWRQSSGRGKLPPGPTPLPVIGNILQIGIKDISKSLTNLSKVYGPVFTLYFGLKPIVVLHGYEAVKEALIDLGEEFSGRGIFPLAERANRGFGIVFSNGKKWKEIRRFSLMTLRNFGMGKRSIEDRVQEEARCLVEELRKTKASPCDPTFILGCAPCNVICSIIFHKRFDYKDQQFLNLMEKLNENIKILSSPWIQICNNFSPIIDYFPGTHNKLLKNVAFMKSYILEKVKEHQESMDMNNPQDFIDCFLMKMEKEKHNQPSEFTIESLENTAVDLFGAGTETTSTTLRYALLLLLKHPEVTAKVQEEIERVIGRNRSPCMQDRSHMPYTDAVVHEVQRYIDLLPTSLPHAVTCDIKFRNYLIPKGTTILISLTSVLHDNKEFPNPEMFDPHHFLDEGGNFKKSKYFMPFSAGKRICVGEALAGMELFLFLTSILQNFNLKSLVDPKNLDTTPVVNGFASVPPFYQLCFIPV
Excerpt: as §12, §13

physchem = type: physicochemical; conditions: pH 7, aqueous buffer, kinetic from dmso stock
Protocol: (§14) Section 7. Water solubility measurements
temperature overnight. The saturated solution was filtrated through a filter membrane
UV. The sample was performed in triplicate. For quantification, a model LC-20AT
The flow rate was 1.0 mL/min,
and injection volume was 20 μL. Aqueous concentration was determined by
Section 8. CYP enzyme inhibition assay

in vivo = conditions: male, Sprague-Dawley, rat, plasma
Protocol: (§15) SpragueDawley (SD) rats (180−200 g) were randomly divided into two groups to
(§16) receive oral administration (10 mg/kg) or intravenous (2 mg/kg). A solution of
(§17) compound 18b1 was prepared by dissolving in a mixture of polyethylene glycol (PEG)
(§18) 400/normal saline (70/30, V/V) before the experiment. Blood samples (200 μL of blood
(§19) each times) of the intravenous group were collected from the sinus jugular into
(§20) h after dosing, and blood samples (200 μL of blood each times) of the oral
(§21) used to determine the concentration of 18b1 in plasma. Briefly, 50 μL of plasma was
(§22) and a 20 μL aliquot was injected for LCMS/MS analysis. Standard curves for 18b1 in
(§23) blood were generated by the addition of S10 various concentrations of 18b1 together

WT HIV-1 RT = biological target: T1, WT HIV-1 RT (Human immunodeficiency virus type 1 group M subtype B, UniProt P04585); experiment: biochemical
T1 construct: purchased Roche
Protocol: Section 4. HIV-1 RT inhibition assays
A reverse transcriptase (RT) assay kit produced by Roche was selected for the RT inhibition assay.3 All the reagents for performing the RT reaction came with the kit and the ELSIA procedures for RT inhibition assay was carried out following the description in the kit protocol. Briefly, the reaction mixture containing template/primer complex, viral nucleotides (dNTPs) and RT in the incubation buffer with or without inhibitors was incubated for 1 h at 37 °C . After that, the reaction mixture was transferred to a streptavidine coated microtiter plate and incubated for another 1 h at 37 °C to make sure retranscriptional cDNA chain that consisted biotin labeled dNTPs bound to streptavidine. Then unbound dNTPs were removed using washing buffer and anti-DIG-POD working solution was added. After incubation for 1 h at 37 °C , the DIG-labeled dNTPs incorporated in cDNA were bound to the anti-DIG-POD antibody. The unbound

[3] = In vivo pharmacokinetics in Sprague-Dawley rats; conditions: SD rat, 2.0 mg/kg i.v., mean ± SD, n = 3
Protocol: as §15, §16, §17, §18, §19, §20, §21, §22, §23

CYP2D6 = CYP2D6 (Homo sapiens, UniProt P10635); experiment: in vitro; conditions: human, microsomes, IC50 CYP2D6
Sequence of CYP2D6 (P10635 whole entry): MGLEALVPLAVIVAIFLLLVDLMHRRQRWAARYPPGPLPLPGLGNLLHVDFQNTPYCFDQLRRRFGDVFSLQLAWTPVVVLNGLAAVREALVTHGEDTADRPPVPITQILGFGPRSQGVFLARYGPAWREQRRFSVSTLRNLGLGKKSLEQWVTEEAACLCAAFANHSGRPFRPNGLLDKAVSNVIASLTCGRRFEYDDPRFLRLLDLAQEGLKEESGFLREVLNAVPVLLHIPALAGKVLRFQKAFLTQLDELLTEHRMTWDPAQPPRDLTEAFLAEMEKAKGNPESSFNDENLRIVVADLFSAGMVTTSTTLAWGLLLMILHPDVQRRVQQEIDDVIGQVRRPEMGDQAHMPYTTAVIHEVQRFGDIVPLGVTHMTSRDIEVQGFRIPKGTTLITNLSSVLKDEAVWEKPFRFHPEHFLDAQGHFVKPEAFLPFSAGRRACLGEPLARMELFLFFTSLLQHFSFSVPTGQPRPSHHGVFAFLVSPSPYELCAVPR
Protocol: Fig. S3 Decomposition of the binding free energy (per-residue) into contributions from electrostatic energy, vdw energy, polar solvation energy, and non-polar solvation energy. a K103N-18b1. b […]
as §14
Water solubility was measured in phosphate buffer at pH 7.0 by using an HPLC-UV method.17 Compounds were initially dissolved in DMSO at 10 mg/mL 10 μL of this stock solution was spiked into purified water (1 mL) with the final DMSO concentration being 1%. The mixture was ultrasonic for 2 h at room temperature and restored at room temperature overnight. The saturated solution was filtrated through a filter membrane (pore size = 0.22 μm) and transferred to other Eppendorf tubes for analysis by HPLC-UV. The sample was performed in triplicate. For quantification, a model LC-20AT HPLC-UV (SHIMADZU) system was used with an Inertsil ® ODS-SP-C18 column (150 mm × 4.6 mm, 5 μm) and MeOH/water as eluant. The flow rate was 1.0 mL/min, and injection volume was 20 μL. Aqueous concentration was determined by comparison of the peak area of the saturated solution with a standard curve plotted peak area versus known concentrations, which were prepared by solutions in MeOH at 200, […]
as §12
Section 9. Pharmacokinetics studies […]
approval from the Animal Ethical and Welfare Committee (AEWC). Ten male […]
Blood samples (200 μL of blood
Briefly, 50 μL of plasma was […]
tube, which was centrifuged at 3000g for 10 min. The supernatant layer was collected […]
Standard curves for 18b1 in […]
with an internal standard to blank plasma. Then all samples were quantified with an […]

HIV-1 Y181C = experiment: Anti-HIV-1 activity against Y181C mutant strain, MTT method in MT-4 cells; type: cell-based; conditions: for EC50: Human immunodeficiency virus 1, MT4, read-out: EC50 Y181C, MT-4 cells, MTT method, mean ± SD, n ≥ 4
Excerpt: as §8, §9, §10, §11

MT-4 cells = conditions: mock-infected MT-4 cells, MTT method, same laboratory; cited from earlier work
[4] = test system: HIV-1 K103N/Y181C double mutant (RES056); conditions: cited from earlier work
HIV-1 WT (IIIB) [5] = conditions: cited from earlier work; for EC50: MT-4 cells, MTT method, same laboratory, same method
[6] = MT4, MT-4 cells, MTT method, mean ± SD, n ≥ 4, read-out: EC50 IIIB

Cc1cn([C@H]2C[C@H](N=[N+]=[N-])[C@@H](CO)O2)c(=O)[nH]c1=O [AZT, zidovudine]
CC50 at 5 days (in vitro): > 7.48 µM | EC50 [1]: 0.037 ± 0.011 µM | SI RES056 [1]: >200 | EC50 (HIV-1 WT (IIIB) [2]; MT4, read-out: EC50 IIIB): 0.032 ± 0.0096 µM | SI IIIB (HIV-1 WT (IIIB) [2]): >234

Cc1cc(/C=C/C#N)cc(C)c1Oc1ccnc(Nc2ccc(CN3CCN(S(C)(=O)=O)CC3)cc2)n1 [BH-11c]
EC50 (HIV-1 Y188L): 1.32 ± 0.22 µM | EC50 (HIV-1 L100I): 0.014 ± 0.0053 µM | EC50 (HIV-1 E138K): 0.0094 ± 0.005 µM | EC50 (HIV-1 F227L/V106A): 0.21 ± 0.095 µM | EC50 (HIV-1 K103N): 0.0037 ± 0.0016 µM

CCS(=O)(=O)N1CCN(c2ccc(Nc3nccc(Oc4c(C)cc(C#N)cc4C)n3)cc2C#N)CC1 [Compound 17b2]
CC50 at 5 days (in vitro): > 241 µM | EC50 [1]: > 241 µM | EC50 (HIV-1 WT (IIIB) [2]; [6]): 0.0066 ± 0.0017 µM | SI IIIB (HIV-1 WT (IIIB) [2]): >36,585

Cc1cc(/C=C/C#N)cc(C)c1Oc1ccnc(Nc2ccc(N3CCN(S(C)(=O)=O)CC3)c(C#N)c2)n1 [Compound 18b1]
EC50 (HIV-1 Y188L): 0.74 ± 0.21 µM | CC50 at 5 days (in vitro): 10.2 ± 1.82 µM | EC50 (HIV-1 L100I): 0.0037 ± 0.00062 µM | EC50 (HIV-1 E138K): 0.0064 ± 0.00054 µM | IC50 at 10 min (CYP2C19): 8 µM | IC50 at 10 min (CYP2C9): 5.3 µM | solubility (physchem): 13.5 ± 0.49 µg/mL (≈ 25.4 µM) | EC50 [1]: 0.093 ± 0.019 µM | SI RES056 [1]: 110 | EC50 (HIV-1 WT (IIIB) [2]; MT4, read-out: EC50 IIIB): 0.0014 ± 0.00019 µM | SI IIIB (HIV-1 WT (IIIB) [2]): 7171 | AUC(0-inf) (in vivo; iv, 2 mg/kg): 792 ± 74.9 ng·h/mL | AUC(0-t) (in vivo; iv, 2 mg/kg): 785 ± 73.9 ng·h/mL | Cmax (in vivo; iv, 2 mg/kg): 1230 ± 96.1 ng/mL | Tmax (in vivo; iv, 2 mg/kg): 0.08 h | clearance (in vivo; iv, 2 mg/kg): 42.3 mL/min/kg | half-life (in vivo; iv, 2 mg/kg): 2.42 ± 0.34 h | bioavailability (in vivo; oral, 10 mg/kg): 1.34% | AUC(0-inf) (in vivo; po, 10 mg/kg): 53.2 ± 8.32 ng·h/mL | AUC(0-t) (in vivo; po, 10 mg/kg): 45.1 ± 12.9 ng·h/mL | Cmax (in vivo; po, 10 mg/kg): 16.1 ± 6.59 ng/mL | Tmax (in vivo; po, 10 mg/kg): 3.5 ± 2.78 h | half-life (in vivo; po, 10 mg/kg): 3.05 ± 1.44 h | IC50 (WT HIV-1 RT; read-out: IC50 against WT HIV-1 RT, inhibition of biotin deoxyuridine triphosphate incorporation into HIV-1 IIIB RT by 50%, mean ± SD, n = 2): 0.093 ± 0.017 µM | fold more potent than lead compound BH-11c (HIV-1 F227L/V106A; F227L/V106A strain, ratio of EC50): ~ 20 fold | EC50 (HIV-1 F227L/V106A): 0.0099 ± 0.0016 µM | V [3]: 8.81 L/kg and 8.81 ± 0.72 L/kg | IC50 at 10 min (CYP2D6): > 10 µM | EC50 (HIV-1 K103N): 0.0017 ± 0.00032 µM | EC50 (HIV-1 Y181C): 0.0064 ± 0.00067 µM | fold potency enhancement over ETR (HIV-1 Y181C; Y181C strain, ratio of EC50): 2.8 fold

Cn1c(Cn2ccc(C(F)(F)F)c(Oc3cc(Cl)cc(C#N)c3)c2=O)n[nH]c1=O [DOR, doravirine]
CC50 (MT-4 cells): > 294 µM | EC50 ([4]; MT-4 cells, MTT method, same laboratory, same method): 0.015 ± 0.006 µM | SI RES056 ([4]; ratio of CC50/EC50): >20136 | EC50 (HIV-1 WT (IIIB) [5]): 0.013 ± 0.004 µM | SI IIIB (HIV-1 WT (IIIB) [5]; ratio of CC50/EC50): >21,940

O=C1Nc2ccc(Cl)cc2[C@@](C#CC2CC2)(C(F)(F)F)O1 [EFV, efavirenz]
EC50 (HIV-1 Y188L): 0.25 ± 0.056 µM | CC50 at 5 days (in vitro): > 6.33 µM | EC50 (HIV-1 L100I): 0.053 ± 0.028 µM | EC50 (HIV-1 E138K): 0.0065 ± 0.0017 µM | EC50 [1]: 0.3 ± 0.19 µM | EC50 (HIV-1 WT (IIIB) [2]; [6]): 0.0037 ± 0.00067 µM | EC50 (HIV-1 F227L/V106A): 0.26 ± 0.1 µM | EC50 (HIV-1 K103N): 0.12 ± 0.024 µM

Cc1ccnc2c1NC(=O)c1cccnc1N2C1CC1 [NVP, Nevirapine]
EC50 (HIV-1 Y188L): > 15 µM | CC50 at 5 days (in vitro): > 15 µM | EC50 (HIV-1 L100I): 2.23 ± 0.98 µM | EC50 [1]: > 15 µM | EC50 (HIV-1 WT (IIIB) [2]; [6]): 0.19 ± 0.076 µM | EC50 (HIV-1 F227L/V106A): > 15 µM | EC50 (HIV-1 K103N): 6.04 ± 2.66 µM | EC50 (HIV-1 Y181C): 7.4 ± 1.78 µM

Cc1cc(/C=C/C#N)cc(C)c1Nc1ccnc(Nc2ccc(C#N)cc2)n1 [RPV, rilpivirine]
EC50 (HIV-1 WT (IIIB) [5]): 0.001 ± 0.00027 µM | IC50 (WT HIV-1 RT): 0.43 ± 0.087 µM

Source: publication PMC10148624, “Discovery of diarylpyrimidine derivatives bearing piperazine sulfonyl as potent HIV-1 nonnucleoside reverse transcriptase inhibitors” (Communications Chemistry, 2023)
